The source of these data is patent US20260276660A1, “DETERMINATION OF PROGESTOGENS NON-INVASIVELY IN ANIMALS” (Vetcare Oy, priority 2023, published 2026).

Molecules are shown by their SMILES.

The first series concerns Monoclonal mouse 5α-PtG antibody. The series can be described thus: Cross-reactivity of monoclonal 5α-PtG antibody (enzyme immunoassay). The format is binding. As to conditions: monoclonal mouse 5α-PtG antibody raised against 5α-PtG-KLH. The method, then:
Monoclonal mouse 5α-PtG antibody was raised against the 5α-PtG-KLH by Thermo Fisher Scientific (Rockford, TL, USA). The antibodies were screened against the 5α-PtG-BSA. Cross-reactivities for the antibody were: 100% 5α-pregnane-3β,6α,20β-triol glucuronide, 25.4% 5α-pregnane-3β,6α,20β-triol, 0.5% 5β-pregnane-3α,20β-diol and 0.5% 5α-pregnane-3β,6α-diol-20-one.
The 96 well polystyrene, certified MaxiSorp® plates were coated with antigen (5α-PtG-cBSA) by adding 100 μl of 0.25 μg/ml antigen in coating buffer (0.01 M sodium bicarbonate, pH 9.5) in each well. The plates were covered with plastic sticker to prevent evaporation, protected from light and incubated at room temperature over night or several nights at +4° C. The wells were emptied and washed once with 250 μl general washing buffer (e.g. PBS with 0.05% Tween 20 (PBST)), filled with 200 μl blocking buffer (5% sucrose and 0.5% BSA in PBST (w/V)), covered and incubated at +37° C. for a half an hour. The plates were poured empty and dried for three hours at +37° C. Dried plates were covered with plastic sticker, packed in re-sealable plastic bags with silica beads and stored at +4° C. until use.
The hormone assays were performed from the individual samples collected in different oestrus cycle phases and from the urine sample series from 60 bitches. The 5α-PtG-cBSA coated plates were washed once with 250 μl of PBST. The urine samples were diluted 1:20 in assay buffer (0.2% BSA (w/V) in PBS with 0.01% Triton-X) and added in sample wells (50 μl). A dilution series of standard was prepared by diluting the 5α-PtG in assay buffer and added to standard wells (50 μl; 1200-1.6 nM). Assay buffer without additives was added to two wells to determine the maximum binding capacity (B0) and 1900 nM 5α-PtG control was diluted 1:20 in assay buffer and used as a recovery control in all assays. All samples and standards were measured as two replicates. The stock dilution of monoclonal mouse 5α-PtG antibody (1:100) was further diluted 1:100 in assay buffer and added 50 μl in each well. The plate was covered and incubated at +37° C. for half an hour, followed by washing the plate three times. Horseradish peroxidase labeled secondary antibody (goat anti-mouse IgG HRP) was diluted in 1:20 000 in 0.5% BSA (w/V) in PBST, added 100 μl per well and incubated half an hour at +37° C. After washing the plate three times with PBST, TMB in DMSO solution (0.5% 3,3′,5,5′-tetramethylbenzidine in dimethylsulfoxide (w/V; TCIAT1023 Tokyo Chemical Industry)) was diluted 1:50 in substrate buffer (0.1 M sodium acetate trihydrate, 1.5 mM citric acid monohydrate, 0.005% hydrogen peroxide (30%)), added in each well (100 μl) and incubated at room temperature 30 minutes. The reaction was stopped by adding 50 μl 1 M sulfuric acid to each well. The absorbance was measured at 450 nm by microplate reader (Hidex Sense).
Regarding `C[C@@H](O)[C@H]1CC[C@H]2[C@@H]3C[C@H](O[C@@H]4O[C@H](C(=O)O)[C@@H](O)[C@H](O)[C@H]4O)[C@H]4C[C@@H](O)CC[C@]4(C)[C@H]3CC[C@]12C` [5α-PtG, 5α-pregnane-3β,6α,20β-triol-6-O-β-D-glucuronide], the “Cross-reactivities for the antibody” value stood at 100%.

With `C[C@H](O)[C@H]1CC[C@H]2[C@@H]3C[C@H](O)[C@H]4C[C@@H](O)CC[C@]4(C)[C@H]3CC[C@]12C` [5α-pregnane-3β,6α,20α-triol], the “Cross-reactivities for the antibody” value is given as “No cross-reactivities”.

In the case of `C[C@@H](O)[C@H]1CC[C@H]2[C@@H]3C[C@H](O)[C@H]4C[C@@H](O)CC[C@]4(C)[C@H]3CC[C@]12C` [5α-pregnane-3β,6α,20β-triol], the “Cross-reactivities for the antibody” value amounted to 25.4%.

Consider `CC(=O)[C@H]1CC[C@H]2[C@@H]3C[C@H](O)[C@H]4C[C@@H](O)CC[C@]4(C)[C@H]3CC[C@]12C` [5α-pregnane-3β,6α-diol-20-one], for which the “Cross-reactivities for the antibody” value is recorded as 0.5%.

Take `C[C@@H](O)[C@@]1(O)CCC2C3CC[C@H]4C[C@@H](O)CC[C@]4(C)C3CC[C@@]21C` (stereo partly drawn) [5α-pregnane-3β,17α,20β-triol]: the “Cross-reactivities for the antibody” value is reported as “No cross-reactivities”.

Turning to `C[C@H](O)[C@@]1(O)CC[C@H]2[C@@H]3CC[C@@H]4C[C@H](O)CC[C@]4(C)[C@H]3CC[C@@]21C` [5β-pregnane-3α,17α,20α-triol], the “Cross-reactivities for the antibody” value is “No cross-reactivities”.

With `CC(O)C1(O)CCC2C3CCC4CC(O)CCC4(C)C3CCC21C` (stereo not drawn) [5β-pregnane-3α,17α,20β-triol], the “Cross-reactivities for the antibody” value is recorded as “No cross-reactivities”.

Turning to `C[C@H](O)[C@H]1CC[C@H]2[C@@H]3CC[C@@H]4C[C@H](O)CC[C@]4(C)[C@H]3CC[C@]12C` [5β-pregnane-3α,20α-diol], the “Cross-reactivities for the antibody” value is recorded as “No cross-reactivities”.

Take `C[C@@H](O)[C@H]1CC[C@H]2[C@@H]3CC[C@@H]4C[C@H](O)CC[C@]4(C)[C@H]3CC[C@]12C` [5β-pregnane-3α,20β-diol]: the “Cross-reactivities for the antibody” value came to 0.5%.

In the case of `C[C@H](O)[C@H]1CC[C@H]2[C@@H]3CC[C@@H]4C[C@H](O[C@@H]5O[C@H](C(=O)O)[C@@H](O)[C@H](O)[C@H]5O)CC[C@]4(C)[C@H]3CC[C@]12C` [PdG, 5β-pregnane-3α,20α-diol-3-glucuronide], the “Cross-reactivities for the antibody” value is “No cross-reactivities”.

With `CC(=O)[C@H]1CC[C@H]2[C@@H]3CCC4=CC(=O)CC[C@]4(C)[C@H]3CC[C@]12C` [progesterone, pregn-4-ene-3,20-dione], the “Cross-reactivities for the antibody” value is reported as “No cross-reactivities”.

For another series, the system named is hepatic S9 enzymes. The series is described as follows: In vitro metabolism of progesterone by hepatic S9. Type of series: in vitro ADME, dog. The following applies: after one hour with ovarian S9, hepatic S9 added.
In the case of `CC(=O)[C@@]1(O)CC[C@H]2[C@@H]3CCC4=CC(=O)CC[C@]4(C)[C@H]3CC[C@@]21C` [17α-OHP, 17α-hydroxyprogesterone], the “change of 17α-OHP when hepatic S9 were added” value is “decreased significantly”.

The series is the same for the next values; noted with them: dog, 50 µg/mL.
As to `CC(=O)[C@H]1CC[C@H]2[C@@H]3CCC4=CC(=O)CC[C@]4(C)[C@H]3CC[C@]12C` [progesterone, pregn-4-ene-3,20-dione], the “hydroxyprogesterones produced from progesterone” value was “higher amounts of 6α-, 6β- and 16α-hydroxyprogesterones were detected”.
